# Experimental data published in patent EP0196849A2, “Aminohydroxyalkylbenzene anti-obesity and/or anti-hyperglycaemic agents” (BEECHAM GROUP PLC, priority 1985, dated 1986).
# Test system: Female CFLP mice
# Assay: Anti-hyperglycaemic activity: subcutaneous glucose load in fasted mice, area under blood glucose curve
# Format: in vivo
# Conditions: 24 h fasted female CFLP mice, glucose 1 g/kg s.c. 30 min after dosing, 2-hour AUC vs water controls
# Description: Female CFLP mice, weighing approximately 25g, were fasted for 24 hours prior to the study. The compounds under study were administered orally as an aqueous solution to each of 6 mice. Thirty minutes later a blood sample (20ul) was obtained from the tail for the analysis of blood glucose. Immediately after taking this blood sample, glucose (lg/kg body weight) was administered subcutaneously to each mouse. Six mice were given water as a control. Blood samples were then obtained from each mouse at 30 minute intervals for 120 minutes.
# Compounds that produced a significant (p<0.05) reduction of blood glucose, compared with control mice given water, at any time interval were considered active. The area under the blood glucose curve over the 2-hour period after the administration of the glucose was calculated for each compound and compared with the value for control animals.
# [1] = Dose 5 µmol/kg orally as aqueous solution
smiles,measurement,setting,value
"O[C@@H](CNCCc1ccc(CCNC[C@H](O)c2ccccc2)cc1)c1ccccc1 [Example 4, (R,R)-a,a'-[1,4-Phenylenebis [(2,1-ethanediyl)imino]-methylene]bis[benzenemethanol]]",% Reduction in area under blood glucose curve,Dose 12.5 µmol/kg orally as aqueous solution,4.2%
"C[C@H](Cc1ccc(C[C@@H](C)NC[C@H](O)c2cccc(Cl)c2)cc1)NC[C@H](O)c1cccc(Cl)c1 [Example 2, (R,R,R,R)-α,α'-[1,4-Phenylenebis[(1-methyl-2,1-ethanediyl)imino]methylene]bis[3-chlorobenzenemethanol]]",% Reduction in area under blood glucose curve,Dose 25 µmol/kg orally as aqueous solution,49%
"O[C@@H](CNCCOc1ccc(OCCNC[C@H](O)c2ccccc2)cc1)c1ccccc1 [Example 3, (R,R)-a-a'-[1,4-Phenylenedioxybis [(2,1-ethanediyl)-imino]methylene] bis [benzenemethanol]]",% Reduction in area under blood glucose curve,[1],10%
"O[C@@H](CNCCc1ccc(CCNC[C@H](O)c2cccc(Cl)c2)cc1)c1cccc(Cl)c1 [Example 6, (R,R)-a,a'-[1,4-Phenylenebis[(2,1-ethanediyl]imino]-methylene]bis[3-chlorobenzenemethanol]]",% Reduction in area under blood glucose curve,[1],48%
"O[C@@H](CNCCOc1ccc(OCCNC[C@H](O)c2cccc(Cl)c2)cc1)c1cccc(Cl)c1 [Example 5, (R,R)-α,α^1-[1,4-Phenylenedioxybis[(2,1-ethanediyl)-imino]methylene]bis[3-chlorobenzenemethanol]]",% Reduction in area under blood glucose curve,Dose 2.5 µmol/kg orally as aqueous solution,30%
